The source of these data is ChEMBL document CHEMBL5226287, “Small organic molecules targeting the energy metabolism of Mycobacterium tuberculosis” (Eur J Med Chem, 2021).

In brackets after ≈: the same amount, converted by molar mass. Starred links: 1 amine or outer side, 2 acyl side, 3 side chain; linkers in the order of their positions; H or OH if unused. Non-standard residues stand in square brackets, D forms with d. Residues, ends and D or L forms follow the SMILES beside them. ξ: configuration not given here. *: point of attachment. X1 = CCC(=O)C[C@@H](O)C[C@@H](C)C[C@H](N[*:1])C(=O)[*:2]; Alaψ(CH2NMeCH2CH2OH) = C[C@@H](CN(C)CCO)N*; Decanoyl(2R-Me) = CCCCCCCC[C@@H](C)C(=O)*; Ile(3ξ) = CCC(C)[C@H](N)C(=O)O; ξβ3hP = O=C(O)CC1CCCN1; Aib = CC(C)(N)C(=O)O

Holding throughout (format): functional
The subject of assay [1] is Mycobacterium tuberculosis. The assay is described as follows: Antibacterial activity against Mycobacterium tuberculosis H37Rv resistant isoniazid by CLSI broth microdilution method. The following applies: route inh. (Dilution methods test growth across graded concentrations, often in twofold steps.)
Assay [2] deals with Mycobacterium tuberculosis. Briefly: Antibacterial activity against Mycobacterium tuberculosis H37Rv resistant rifampicin by CLSI broth microdilution method.
Assay [3] deals with Mycobacterium tuberculosis. Briefly: Antimycobacterial activity against Mycobacterium tuberculosis QcrBT mutant assessed as reduction in bacterial growth.
Assay [4] deals with Mycobacterium tuberculosis. The assay is described as follows: Antibacterial activity against rifampicin-resistant Mycobacterium tuberculosis H37Rv assessed as bacterial growth inhibition by microdilution method.
Assay [5] has as its system Mycobacterium tuberculosis. Briefly: Antibacterial activity against isoniazid-resistant Mycobacterium tuberculosis H37Rv assessed as bacterial growth inhibition by microdilution method.
Assay [6] has as its system Mycobacterium tuberculosis. Briefly: Antibacterial activity against Mycobacterium tuberculosis H37Rv overexpressed in ATP synthase.
Assay [7] concerns Mycobacterium tuberculosis. Briefly: Antibacterial activity against drug resistant Mycobacterium tuberculosis H37Rv in the presence of ATP synthase.

Regarding `CCCc1cc(OCC(=O)Nc2ccccc2OC)c2cc(OC)ccc2n1`, the minimal inhibitory concentration (MIC) in assay [1] and in assay [2] was 0.01 mg/L (≈ 0.0263 µM) in each case.
In the case of `Cc1ccn2c(C(=O)NCc3ccccc3)c(C)nc2c1`, the MIC90 (commonly an inhibitory concentration at the 90% level, which refers to growth in some studies and to a panel of isolates in others) in assay [3] came out at 6.5 µM (≈ 1.82 µg/mL).
Turning to `Cc1ccn2c(C(=O)NCc3cccc(OC(C)C)c3)c(C)nc2c1`, the MIC90 in assay [3] is above 20 µM.
`Cc1cn2c(C(=O)NCc3ccc(N4CCN(c5ccc(C(F)(F)F)cn5)CC4)c(F)c3)c(C)nc2s1`: the results for the MIC in assay [4] and in assay [5] were below 0.201 µM and below 0.506 µM, respectively.
On to `CCCCCCCC[C@@H](C)C(=O)N1CCCC1CC(=O)N[C@@H](C[C@H](C)C[C@H](O)CC(=O)CC)C(=O)NC(C)(C)C(=O)NC(C)(C)C(=O)N[C@H](C(=O)N[C@H](C(=O)NC(C)(C)C(=O)NC(C)(C)C(=O)N[C@@H](C)CN(C)CCO)C(C)C)C(C)CC` (stereo partly drawn) ({Decanoyl(2R-Me)}-[ξβ3hP][X1][Aib][Aib][Ile(3ξ)]V[Aib][Aib]-{Alaψ(CH2NMeCH2CH2OH)}), for which the MIC – broadly, the least concentration at which growth counts as inhibited – in assay [6] stood at 0.12 mg/L (≈ 0.102 µM).
With `Cc1cn2c(C(=O)NCc3ccc(C(F)(F)F)cc3)c(C)nc2s1`, the MIC in assay [4] and in assay [5] was below 0.04 µM throughout.
On to `CN(C)Cc1ccc(-c2cc3cc(Br)ccc3nc2OCc2ccncc2)cc1`, for which the MIC in assay [7] turned out to be 0.48 mg/L.
The same measure, in the same setting: next, `CN(C)CCN1CCN(c2ccc(-c3cc4cc(Br)ccc4nc3OCc3ccc4ccccc4c3)cc2)CC1`: 0.94 mg/L.
